Reference: patent US20250115597A1, “TYK2 INHIBITORS AND COMPOSITIONS AND METHODS THEREOF” (LYNK PHARMACEUTICALS CO. LTD., priority 2021, published 2025)

molecular target: T1, Ba/F3-FL-TYK2-P760L cells (Homo sapiens, UniProt P29597, P760L, cells depend on it); assay: Anti-proliferative assay, Ba/F3-FL-TYK2-P760L cells (Cell-Titer Glo); format: cell-based; settings: 72 h, read-out: BaF3-FL-T2P760L IC50
T1 construct: BaF3-FL-T2P760L (nM)
Method: Anti-Proliferative Assay Dimerization domain of Tel protein fused with JAK kinase domain was permanently transduced into Ba/F3 cells, whose proliferation is dependent on JAK activity in the absence of IL-3 induction. These engineered Ba/F3 cells (Ba/F3-FL-TYK2-[…], Ba/F3-TEL-TYK2 and Ba/F3-TEL-JAK2) were used to monitor JAK inhibitory activities of the compounds in the cellular. […] Cells were seeded at 2000/well of white flat bottom 96-well plates. The well containing medium only was used as background control. After 24 h growth, cells were treated with compounds. The test compounds were dissolved in DMSO to a stock concentration of 20 mM. 3-fold serially diluted compounds for 9 concentrations with top concentration of 20 μM was added into the each well. […] The cells continued to grow at 37° C. in 5% CO2 for 72 h after compound treatment. The viability was measured by cellular ATP determination using the Cell-Titer Glo luciferase reagent (Promega). The Luminescence value was recorded by a multi-label reader Envision (PerkinElmer).

T1 sequence (P29597 whole entry P760L): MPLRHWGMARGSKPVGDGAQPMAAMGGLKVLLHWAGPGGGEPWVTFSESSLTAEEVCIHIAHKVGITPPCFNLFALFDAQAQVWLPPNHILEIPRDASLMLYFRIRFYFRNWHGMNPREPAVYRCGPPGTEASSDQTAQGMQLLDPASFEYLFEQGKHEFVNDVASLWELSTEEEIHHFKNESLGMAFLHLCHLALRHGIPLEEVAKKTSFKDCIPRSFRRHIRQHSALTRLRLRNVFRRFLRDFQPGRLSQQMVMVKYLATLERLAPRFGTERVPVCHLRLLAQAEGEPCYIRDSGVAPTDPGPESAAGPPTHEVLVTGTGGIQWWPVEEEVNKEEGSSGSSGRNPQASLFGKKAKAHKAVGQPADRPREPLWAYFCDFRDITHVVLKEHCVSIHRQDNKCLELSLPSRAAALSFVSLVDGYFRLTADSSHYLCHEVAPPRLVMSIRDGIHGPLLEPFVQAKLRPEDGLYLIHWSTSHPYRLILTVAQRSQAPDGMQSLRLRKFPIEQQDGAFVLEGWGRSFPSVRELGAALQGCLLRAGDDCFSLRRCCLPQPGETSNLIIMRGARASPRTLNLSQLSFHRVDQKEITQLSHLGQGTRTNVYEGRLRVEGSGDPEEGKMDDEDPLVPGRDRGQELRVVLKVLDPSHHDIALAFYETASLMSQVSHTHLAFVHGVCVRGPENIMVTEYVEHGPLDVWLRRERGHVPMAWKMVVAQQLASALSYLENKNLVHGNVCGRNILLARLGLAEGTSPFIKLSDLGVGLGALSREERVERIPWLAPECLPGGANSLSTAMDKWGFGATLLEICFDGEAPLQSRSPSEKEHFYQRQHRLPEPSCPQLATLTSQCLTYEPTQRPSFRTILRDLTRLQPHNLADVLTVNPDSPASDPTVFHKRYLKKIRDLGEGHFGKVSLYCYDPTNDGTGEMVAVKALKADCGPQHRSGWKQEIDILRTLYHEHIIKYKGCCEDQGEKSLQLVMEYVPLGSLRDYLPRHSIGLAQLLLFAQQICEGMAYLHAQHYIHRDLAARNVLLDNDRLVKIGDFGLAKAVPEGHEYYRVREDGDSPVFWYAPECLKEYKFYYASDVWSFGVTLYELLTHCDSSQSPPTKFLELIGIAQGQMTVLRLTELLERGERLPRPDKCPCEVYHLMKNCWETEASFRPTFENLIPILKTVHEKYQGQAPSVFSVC

GI50 | SMILES
205 nM | [2H]C([2H])([2H])NC(=O)c1cnc(NC(=O)C2CC2)cc1Nc1csc2cnn(C(C)C(F)(F)F)c(=O)c12 (single isomer, unassigned) [Example 185A, (R*)-6-(cyclopropanecarboxamido)-N-(methyl-d3)-4-((4-oxo-5-(1,1,1-trifluoropropan-2-yl)-4,5-dihydrothieno[2,3-d]pyridazin-3-yl)amino)nicotinamide]
912 nM | [2H]C([2H])([2H])NC(=O)c1cnc(NC(=O)C2CC2)cc1Nc1csc2cnn(C(C)C(F)(F)F)c(=O)c12 (single isomer, unassigned) [Example 185B, (S*)-6-(Cyclopropanecarboxamido)-N-(methyl-d3)-4-((4-oxo-5-(1,1,1-trifluoropropan-2-yl)-4,5-dihydrothieno[2,3-d]pyridazin-3-yl)amino)nicotinamide]
327 nM | [2H]C([2H])([2H])NC(=O)c1cnc(NC(=O)C2CC2)cc1Nc1cn(C)c2ccn(C(C)C(F)(F)F)c(=O)c12 (single isomer, unassigned) [Example 190B, (S*)-6-(Cyclopropanecarboxamido)-N-(methyl-d3)-4-((1-methyl-4-oxo-5-(1,1,1-trifluoropropan-2-yl)-4,5-dihydro-1H-pyrrolo[3,2-c]pyridin-3-yl)amino)nicotinamide]
241 nM | CNC(=O)c1cnc(NC(=O)C2CC2)cc1Nc1cn(CCOC)c2ccn([C@H](C)C(F)(F)F)c(=O)c12 (single isomer, unassigned) [Example 201A, (R*)-6-(Cyclopropanecarboxamido)-4-((1-(2-methoxyethyl)-4-oxo-5-(1,1,1-trifluoropropan-2-yl)-4,5-dihydro-1H-pyrrolo[3,2-c]pyridin-3-yl)amino)-N-(methyl-d3)nicotinamide]
96.2 nM | CNC(=O)c1cnc(NC(=O)C2CC2)cc1Nc1cn(C)c2ncn([C@H](C)C(F)(F)F)c(=O)c12 (single isomer, unassigned) [Example 234A, (R*)-6-(cyclopropanecarboxamido)-N-(methyl-d3)-4-((7-methyl-4-oxo-3-(1,1,1-trifluoropropan-2-yl)-4,7-dihydro-3H-pyrrolo[2,3-d]pyrimidin-5-yl)amino)nicotinamide]
599 nM | CNC(=O)c1cnc(NC(=O)C2CC2)cc1Nc1cn(C)c2ncn([C@@H](C)C(F)(F)F)c(=O)c12 (single isomer, unassigned) [Example 234B, (S*)-6-(cyclopropanecarboxamido)-N-(methyl-d3)-4-((7-methyl-4-oxo-3-(1,1,1-trifluoropropan-2-yl)-4,7-dihydro-3H-pyrrolo[2,3-d]pyrimidin-5-yl)amino)nicotinamide]
179 nM | CCn1cc(Nc2cc(NC(=O)C3CC3)ncc2C(=O)NC)c2c(=O)n([C@H](C)C(F)(F)F)cnc21 (single isomer, unassigned) [Example 254A, (R*)-6-(cyclopropanecarboxamido)-4-((7-ethyl-4-oxo-3-(1,1,1-trifluoropropan-2-yl)-4,7-dihydro-3H-pyrrolo[2,3-d]pyrimidin-5-yl)amino)-N-(methyl-d3)nicotinamide]
934 nM | CCn1cc(Nc2cc(NC(=O)C3CC3)ncc2C(=O)NC)c2c(=O)n([C@@H](C)C(F)(F)F)cnc21 (single isomer, unassigned) [Example 254B, (S*)-6-(cyclopropanecarboxamido)-4-((7-ethyl-4-oxo-3-(1,1,1-trifluoropropan-2-yl)-4,7-dihydro-3H-pyrrolo[2,3-d]pyrimidin-5-yl)amino)-N-(methyl-d3)nicotinamide]
483 nM | CNC(=O)c1cnc(NC(=O)C2CC2)nc1Nc1cn(C)c2ccn(C)c(=O)c12 [Example 1, 2-(Cyclopropanecarboxamido)-4-((1,5-dimethyl-4-oxo-4,5-dihydro-1H-pyrrolo[3,2-c]pyridin-3-yl)amino)-N-methylpyrimidine-5-carboxamide]
199 nM | [2H]C([2H])([2H])NC(=O)c1cnc(Nc2cnn(C3CC3)c2)nc1Nc1cccc(-c2ncn(C)n2)c1OC [Example 2, 2-[(1-Cyclopropylpyrazol-4-yl)amino]-4-[2-methoxy-3-(1-methyl-1,2,4-triazol-3-yl)anilino]-N-(trideuteromethyl)pyrimidine-5-carboxamide]
548 nM | [2H]C([2H])([2H])NC(=O)c1cnc(Nc2ccc(F)cc2)nc1Nc1cn(C)c2ccn(C)c(=O)c12 [Example 4, 4-((1,5-Dimethyl-4-oxo-4,5-dihydro-1H-pyrrolo[3,2-c]pyridin-3-yl)amino)-2-((4-fluorophenyl)amino)-N-(methyl-d3)pyrimidine-5-carboxamide]
1350 nM | CNC(=O)c1cnc(Nc2ccc(F)cn2)nc1Nc1cccc(-c2ncn(C)n2)c1OC [Example 5, 2-((5-Fluoropyridin-2-yl)amino)-4-((2-methoxy-3-(1-methyl-1H-1,2,4-triazol-3-yl)phenyl)amino)-N-methylpyrimidine-5-carboxamide]
897 nM | CNC(=O)c1cnc(Nc2ccc(F)cc2)nc1Nc1cccc(OC2CCOCC2)c1OC [Example 6, 2-((4-Fluorophenyl)amino)-4-((2-methoxy-3-((tetrahydro-2H-pyran-4-yl)oxy)phenyl)amino)-N-methylpyrimidine-5-carboxamide]
8020 nM | CNC(=O)c1cnc(NC(=O)C2CC2)nc1Nc1cccc(OC2CCOCC2)c1OC [Example 7, 2-(Cyclopropanecarboxamido)-4-((2-methoxy-3-((tetrahydro-2H-pyran-4-yl)oxy)phenyl)amino)-N-methylpyrimidine-5-carboxamide]
740 nM | CCn1ccc2c(c(Nc3nc(Nc4ccc(F)cc4F)ncc3C(=O)NC)cn2C)c1=O [Example 9, 2-((2,4-Difluorophenyl)amino)-4-((5-ethyl-1-methyl-4-oxo-4,5-dihydro-1H-pyrrolo[3,2-c]pyridin-3-yl)amino)-N-methylpyrimidine-5-carboxamide]
6410 nM | CNC(=O)c1cnc(NC(=O)C2CC2)cc1Nc1cccc(OC2CCOCC2)c1OC [Example 13, 6-(Cyclopropanecarboxamido)-4-((2-methoxy-3-((tetrahydro-2H-pyran-4-yl)oxy)phenyl)amino)-N-methylnicotinamide]
7820 nM | CNC(=O)c1nnc(Nc2ccc(F)cn2)cc1Nc1cccc(OC2CCOCC2)c1OC [Example 25, 6-((5-Fluoropyridin-2-yl)amino)-4-((2-methoxy-3-((tetrahydro-2H-pyran-4-yl)oxy)phenyl)amino)-N-methylpyridazine-3-carboxamide]
> 20000 nM | CNC(=O)c1nnc(NC(=O)C2CC2)cc1Nc1cccc2cc[nH]c(=O)c12 [Example 26, 6-(Cyclopropanecarboxamido)-N-methyl-4-((1-oxo-1,2-dihydroisoquinolin-8-yl)amino)pyridazine-3-carboxamide]
> 20000 nM | [2H]C([2H])([2H])NC(=O)c1cnc(Nc2ccc(F)cc2)nc1Nc1csc2ccn(C)c(=O)c12 [Example 29, 2-((4-Fluorophenyl)amino)-N-(methyl-d3)-4-((5-methyl-4-oxo-4,5-dihydrothieno [3,2-c]pyridin-3-yl)amino) pyrimidine-5-carboxamide]
199 nM | [2H]C([2H])([2H])NC(=O)c1cnc(Nc2cnn(C3CCOCC3)c2)nc1Nc1cccc(-c2ncn(C)n2)c1OC [Example 30, 4-((2-Methoxy-3-(1-methyl-1H-1,2,4-triazol-3-yl)phenyl)amino)-N-(methyl-d3)-2-((1-(tetrahydro-2H-pyran-4-yl)-1H-pyrazol-4-yl)amino)pyrimidine-5-carboxamide]
303 nM | [2H]C([2H])([2H])NC(=O)c1cnc(Nc2cnn(C3CCOC3)c2)nc1Nc1cccc(-c2ncn(C)n2)c1OC (stereo not shown) [Example 31, 4-((2-Methoxy-3-(1-methyl-1H-1,2,4-triazol-3-yl)phenyl)amino)-N-(methyl-d3)-2-((1-(tetrahydrofuran-3-yl)-1H-pyrazol-4-yl)amino)pyrimidine-5-carboxamide]
856 nM | CNC(=O)c1nnc2cc1Nc1cc(cc(-c3ncn(C)n3)c1OC)CN(C)Cc1cccc(n1)N2 [Example 32, 10-Methoxy-N,15-dimethyl-11-(1-methyl-1,2,4-triazol-3-yl)-2,4,5,8,15,21-hexazatetracyclo[15.3.1.13,7.19,13]tricosa-1(21),3(23),4,6,9,11,13(22),17,19-nonaene-6-carboxamide]
988 nM | CNC(=O)c1cnc2nc1Nc1cc(cc(-c3ncn(C)n3)c1OC)COCc1cc(cc(C(F)(F)F)c1)N2 [Example 37, 10-Methoxy-N-methyl-11-(1-methyl-1H-1,2,4-triazol-3-yl)-19-(trifluoromethyl)-15-oxa-2,4,8,23-tetraazatetracyclo[15.3.1.1^{3,7}.1^{9,13}]tricosa-1(20),3,5,7(23),9(22),10,12,17(21),18-nonaene-6-carboxamide]
831 nM | CNC(=O)c1cnc(Nc2ccc(F)cc2)nc1Nc1coc2ccn(C)c(=O)c12 [Example 38, 2-((4-Fluorophenyl)amino)-N-methyl-4-((5-methyl-4-oxo-4,5-dihydrofuro[3,2-c]pyridin-3-yl)amino)pyrimidine-5-carboxamide]
372 nM | [2H]C([2H])([2H])NC(=O)c1cnc(NC(=O)C2CC2)cc1Nc1cnn2c1C(=O)N(CC(F)(F)F)CC2 [Example 46, 6-(Cyclopropanecarboxamido)-N-(methyl-d3)-4-((4-oxo-5-(2,2,2-trifluoroethyl)-4,5,6,7-tetrahydropyrazolo[1,5-a]pyrazin-3-yl)amino) nicotinamide]
